For one data set, the system named is HCMV (strain AD169). The data set is described as follows: HCMV ELISA antiviral assay (viral antigen). It counts as cell-based, human cytomegalovirus. The note with it: Human betaherpesvirus 5, Fibroblast; HCMV AD169 in human foreskin fibroblasts; value before the slash; unit inferred; read-out: Antiviral Activity Elisa, first value (EC50). An excerpt: These complimentary assays tested the ability of a compound to inhibit the production of new virus and the toxicity of the compound to she host cells. It was important that both assays be performed simultaneously in order to compare the results directly since, toxicity may indirectly reduce viral yield.
Viral yield was estimated by measuring the amount of a viral antigen produced 4 days post infection with a monoclonal antibody to an abundant “immediate early” viral protein. An enzyme-linked (horseradish peroxidase) secondary antibody specific to the primary (mouse) antibody was urged to measure the amount of viral antigen. Test compounds were diluted to 2-times the desired final concentration in DMEM+5% FBS. One hundred microliters of this solution was placed in each well of a 96-well plate. This was performed once for the antiviral 96-well plate and again for a cytotoxicity plate. Two controls were also included for both plates; a no drug control and a no virus control. Ganciclovir was routinely tested in antiviral and cytotoxicity plates as a reference standard because it has known antiviral activity for HCMV. All cells were prepared by harvesting human foreskin fibroblasts, with trypsin and re-suspending at a concentration of 5×10^5 cells per ml in DMEM. Infected cells were prepared by infecting these with HCMV (strain AD169) at a multiplicity of infection=0.2. One hundred microliters of uninfected cells (5×10^4 cells) were added to the appropriate wells of the cytotoxicity plate. In a similar manner 100 μl of infected cells (5×10^4 cells) were added to the appropriate wells of the antiviral plate. Additionally, uninfected cells not treated with test compound were included as controls on the antiviral plate. Plates were incubated for 96 hours at 37° C. in 5% CO2 atmosphere and processed to measure the amount of viral antigen and toxicity.
The following was performed on the antiviral plate only. Media was removed and cells were fixed with 1:1 acetone:methanol for 15 minutes at −20° C. Fixative was removed and cells were washed once with PBS containing 0.05% Tween20. In order to block nonspecific binding of antibodies, each well was incubated with PBS containing 3% (w/v) bovine serum albumin (BSA) for 1 hour at 22° C. The blocking solution was removed and the cells were washed once with PBS containing 0.05% Tween20 before incubating with 1:100 dilution of primary antibody in PBS containing 3% BSA for 2 hours at 22° C. The primary antibody was a monoclonal antibody (mouse source) specific to the immediate early nuclear antigen of HCMV and was commercially available (Dupont). The 1° antibody solution was removed and the plate was rinsed 5 times with PBS containing 1% (v/v) Triton X-100 (PBST) before incubating with secondary antibody diluted 1:1000 in PBS containing 3% BSA for 2 hours at 22° C. The secondary antibody (goat source) recognized the murine-specific determinants of the 1° antibody and was covalently linked to horseradish peroxidase (Sigma). The plate was rinsed 5 times with PBST and once with deionized water before adding 100 μl TMB substrate solution and incubating 30 minutes at 22° C. The reaction was stopped by adding 100 μL of phosphoric acid and the OD at 450 nm recorded. TMB (3,3′,5,5′ tetramethylbenzidine) was the substrate for the horseradish peroxidase linked to the 2° antibody. It was made from a commercially available kit (Kirkegaard & Perry Laboratories, Inc.). Antiviral activity was calculated by comparing the amount of viral antigen produced in drug treated wells with that produced in wells absent of drug.

Data set [1] addresses HCMV protease (assemblin) (Human cytomegalovirus, UniProt P16753). The experiment in a line: Enzymatic assay for HCMV protease (assemblin) inhibitors. The class given is biochemical.
Data set [2] concerns the target T1, Human leukocyte elastase (HLE) (Homo sapiens, UniProt P08246).
T1 construct: gift of R. Senior, Washington University
T1 sequence (P08246 30-267): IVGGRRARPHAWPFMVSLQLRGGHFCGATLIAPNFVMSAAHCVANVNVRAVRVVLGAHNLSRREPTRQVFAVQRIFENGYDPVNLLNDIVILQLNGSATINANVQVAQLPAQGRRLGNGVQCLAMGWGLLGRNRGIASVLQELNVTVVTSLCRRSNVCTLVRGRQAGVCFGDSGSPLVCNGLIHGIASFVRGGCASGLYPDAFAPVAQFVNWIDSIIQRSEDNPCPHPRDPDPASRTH
The experiment in a line: Human leukocyte elastase assay. It counts as biochemical. The note with it: @ 100 (concentration unit not given). In short, it runs like this: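 HLE in 0.2 M Tris, pH 8.0, was preincubated 30 minutes at ambient temperature with compound in DMSO. The reaction was started with methoxysuccinyl-Ala-Ala-Pro-Val-p-nitroanilide (2.5 mM added solution), and absorbance increase at 405 nm was monitored for 10 minutes.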

Data set [3] concerns human foreskin fibroblasts.
In data set [4] the target is T2, Bovine pancreas α-chymotrypsin (Bos taurus, UniProt P00766, DEL14-15/DEL147-148).
T2 construct: Bovine pancreas α-chymotrypsin (type II, Sigma); purchased Sigma type II; host or cells: bovine pancreas
The experiment in a line: Chymotrypsin assay. It counts as biochemical. The protocol: The chymotrypsin assay was modified from the method of Delmar et al [Anal. Biochem., 99, 316-320 (1979)]. Bovine pancreas α-chymotrypsin (type II, Sigma) was dissolved in 0.001 N HCl at 1 mg/ml and further diluted 1/600 in assay buffer (0.1 M Tris, pH 7.8, containing 0.1 M CaCl2) before use. 20 μl of test compound in DMSO (or DMSO alone), 100 μl of assay buffer and 30 μl of enzyme were added to […], mixed and pre-incubated for 30 minutes at ambient temperature. Reaction was initiated by addition of 50 Al of 0.2 mM N-succinyl-Ala-Ala-Pro-Phe-p-nitroanilide (Sigma; 2 mM in DMSO diluted 1/10 in assay buffer before use). The increase in absorbance at 405 nm was monitored for 10 minutes with a Biotek EL340 plate reader.

The subject of data set [5] is HCMV engineered virus RC256. The experiment in a line: microbe, parasite or virus in culture. It counts as cell-based, human cytomegalovirus. The following applies: Human betaherpesvirus 5, Fibroblast, read-out: Antiviral Activity RC256, first value (EC50).

These results are taken from patent US6683077B2, “2-Amino-benzoxazinones for the treatment of viral infections” (G.D. Searle & Co., priority 1996, dated 2004).

HCMV protease (assemblin), sequence (P16753 1-256): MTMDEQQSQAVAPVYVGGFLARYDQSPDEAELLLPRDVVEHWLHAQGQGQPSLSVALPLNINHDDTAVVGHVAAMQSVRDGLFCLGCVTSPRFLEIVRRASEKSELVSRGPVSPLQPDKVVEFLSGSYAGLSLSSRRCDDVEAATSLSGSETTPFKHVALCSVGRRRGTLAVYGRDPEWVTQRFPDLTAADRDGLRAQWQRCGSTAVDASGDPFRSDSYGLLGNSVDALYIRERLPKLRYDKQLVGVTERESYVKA

The EC50 is the concentration at which the effect is half-maximal. For the compound `Cc1c(NC(=O)CN(C)C)ccc2nc(N[C@@H](C)c3ccccc3)oc(=O)c12` [Example 11m, 5-Methyl-6-[[(dimethylaminomethyl)carbonyl]amino]-2-[[(1S)-phenylethyl]amino]-4H-3,1-benzoxazin-4-one], the EC50 in the data set with HCMV (strain AD169) was 88 µM. Moreover, the “Assemblin Protease, % @ concentration” value in data set [1] (@ 1 (concentration unit not given)) amounted to 67% @ 1.0. In addition, the “HLE, % @ concentration” value in data set [2] is listed as 37% @ 100.

Take `Cc1cccc2nc(N[C@@H](C)c3ccccc3)oc(=O)c12` [Example 3b, 5-Methyl-2-[[(1S)-1-phenylethyl]amino]-4H-3,1-benzoxazin-4-one]: in the data set with HCMV (strain AD169), the 50% effective concentration (EC50) is 27 µM.

Consider `COC(=O)[C@H](Cc1cscn1)Nc1nc2ccc(NC(=O)OC(C)(C)C)c(C)c2c(=O)o1` [Example 6e, N-[6-[[(1,1-Dimethylethoxy)carbonyl]amino]-5-methyl-4-oxo-4H-3,1-benzoxazin-2-yl]-L-thiazol-4-yl-alanine, methyl ester], for which the EC50 with HCMV (strain AD169) came to 58 µM.

For the compound `COCC(=O)Nc1ccc2nc(N[C@@H](Cc3ccccc3)C(=O)OC)oc(=O)c2c1C` [Example 11c, N-[6-[[(Methoxymethyl)carbonyl]amino]-5-methyl-4-oxo-4H-3,1-benzoxazin-2-yl]-L-phenylalanine, methyl ester], the concentration giving a half-maximal response (EC50) in the data set with HCMV (strain AD169) stood at 77 µM. In addition, the “HLE, % @ concentration” value in data set [2] came to 83% @ 100.

In the case of “3,5-Diiodo-N-(5-methyl-(3,5-diiodo)2-yl)-L-tyrosine, methyl ester [Example 1q]”, in data set [3], the “Antiviral Activity RC256, second value (cytotoxicity)” value is reported as 70.

What is called IC50 is the concentration needed to halve the response being measured. A lower IC50 goes with greater potency in that assay. Take `COc1ccc(C[C@H](Nc2nc3ccc(NC(=O)Oc4ccccc4)c(C)c3c(=O)o2)C(=O)N(C)Cc2ccccc2)cc1` [Example 11q, Phenyl[2-[[1S-[(4-methoxyphenyl)methyl]-2-[methyl(phenylmethyl)amino]-2-oxcethyl]amino]-5-methyl-4H-3,1-benzoxazin-6-yl]carbamate]: the concentration for half-maximal inhibition (IC50) amounted to 0.6 µM in data set [1] and 2.4 µM in data set [4]. Also, in data set [5], the EC50 was determined as 18 µM.

Consider `COC(=O)[C@H](C)Nc1nc2cccc(C)c2c(=O)o1` [Example 1b, N-(5-Methyl-4-oxo-4H-3,1-benzoxazin-2-yl)-L-alanine, methyl ester], for which, in the data set with HCMV (strain AD169), the 50% effective concentration (EC50) worked out at 72 µM.

As for “1,1-Dimethylethyl[2-[[1S-[(4-methoxyphenyl)methyl]-2-oxo-2-[[2-(2-pyridinyl)ethyl]amino]ethyl]amino]-5-methyl-4-oxo-4H-3,1-benzoxazin-6-yl]carbamate [Example 6hh]”, in data set [3], the “Antiviral Activity RC256, second value (cytotoxicity)” value came to 60. The “Chymotrypsin, % @ concentration” value in data set [4] (@ 10 (concentration unit not given)) is given as 21% @ 10.

Consider `Cc1c(NC(=O)OC(C)(C)C)ccc2nc(N[C@@H](C)C(=O)N3CCCC3)oc(=O)c12` [Example 6g, N-[6-[[(1,1-Dimethylethoxy)carbonyl]amino]-5-methyl-4-oxo-4H-3,1-benzoxazin-2-yl]-L-alanine, pyrrolidineamiae], for which, in the data set on HCMV (strain AD169), the 50% effective concentration (EC50) is 100 µM.

Regarding `Cc1c(NC(=O)OC(C)(C)C)ccc2nc(N[C@@H](C)C(=O)N(C)Cc3ccccc3)oc(=O)c12` [Example 6aa, N-[6-[[(1,1-Dimethylethoxy)carbonyl]amino]-5-methyl-4-oxo-4H-3,1-benzoxazin-2-yl]-L-alanine, N-methyl-N-phenylmethylamide], in the data set on HCMV (strain AD169), the EC50 is 75 µM.
